Experimental data published in PMC12903969, “Discovery of a Novel and Potent Kir4.1 Inhibitor as a Safe and Rapid‐Onset Antidepressant Agent in Mice” (Advanced Science, 2025).
Values joined by “and” are separate entries in the source; they are usually repeats but may differ in a detail not shown here. Equal entries are not always repeated. Where two headings read alike, the source gives them in different places.

What was measured:
C57BL/6J mice = assay: Seizure threshold measurement in 6-Hz seizure test; type: in vivo; set-up: key to seizure incidence, Multiple dose-6 Hz / seizure incidence, Single dose-6 Hz: % of mice showing seizures; settings: for seizure incidence, Multiple dose-6 Hz / seizure incidence, Single dose-6 Hz: JX3212 10 mpk
From the text: Male C57BL/6J mice were subjected to corneal electroshock stimulation using a Grass S48 stimulator (Grass Technologies) with standardized parameters: frequency, 6 Hz; rectangular pulse width, 0.2 ms; and duration, 3 s. Seizure activity was operationally defined as the occurrence of any of the following behaviors: forelimb clonus, postictal immobility, facial myoclonus, staring behavior, orofacial automatization (chewing/unilateral pawing), or Straub tail posture. […] The seizure incidence was compared between the vehicle‐ and JX3212‐treated groups, with the CS50 threshold calculated as the minimal current intensity required to induce seizures in 50% of the subjects via probit analysis.

mice = assay: Shuttle box test (SBT); type: in vivo
Protocol: This test was designed to measure learning and memory function in rodents. The shuttle box consists of two compartments connected by a freely passable gate. The mice were allowed to explore the test chamber freely for 5 min before the test to eliminate exploratory reflexes. Each mouse was placed in one compartment of the shuttle box. The conditioning protocol began with a 5‐s conditioned stimulus presentation of light (200 lux) and auditory tone (100 dB, 1000 Hz), followed immediately by a 3‐s footshock (300 µA) unconditioned stimulus. Escape to the opposite compartment during the conditioned stimulus presentation was scored as an active avoidance response, whereas escape occurring only after shock onset was recorded as […]. […] Each test session consisted of 40 trials with 10‐s inter‐trial intervals, with the number of active avoidance responses systematically recorded.

Kir4.1 I159A = target: T1, Kir4.1 I159A (Homo sapiens, UniProt P78508, I159A); assay: Whole-cell patch clamp, Kir4.1 point mutant I159A; type: cell-based
T1 construct: expressed in transfected cells; host or cells: CHO-K1
T1 sequence (P78508 1-379 I159A): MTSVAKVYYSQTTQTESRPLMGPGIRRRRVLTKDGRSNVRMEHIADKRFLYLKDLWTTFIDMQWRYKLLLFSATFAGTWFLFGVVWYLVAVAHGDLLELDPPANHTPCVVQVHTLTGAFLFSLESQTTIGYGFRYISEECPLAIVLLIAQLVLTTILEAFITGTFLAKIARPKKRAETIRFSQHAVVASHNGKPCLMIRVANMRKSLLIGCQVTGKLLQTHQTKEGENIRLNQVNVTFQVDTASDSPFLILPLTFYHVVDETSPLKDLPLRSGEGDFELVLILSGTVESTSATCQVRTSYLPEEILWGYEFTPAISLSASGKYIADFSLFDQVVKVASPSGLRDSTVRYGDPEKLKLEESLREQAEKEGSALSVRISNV
Protocol: Plasmids encoding WT human potassium channels Kir1.1, Kir2.1, Kir2.2, Kir4.1, and Kir4.2 were obtained from the Beijing Genomics Institute. All point mutations were constructed using the QuickChange II Site‐Directed Mutagenesis Kit (Stratagene) and subsequently verified by sequencing.
CHO‐K1 cells were maintained in DMEM/F12 growth medium containing 10% fetal bovine serum. Plasmids encoding the target genes (3600 ng) and enhanced green fluorescent protein (400 ng) were cotransfected into cells using Lipofectamine 2000 (Invitrogen) in accordance with the manufacturer's instructions. Cells were seeded onto poly‐d‐lysine (PDL)‐coated glass coverslips 1 h prior to electrophysiological recordings. All cells were cultured under standard conditions of 5% CO2 at 37 °C.
Whole‐cell patch‐clamp recordings were obtained either in transiently transfected CHO‐K1 cells or in primary cultured astrocytes at room temperature using standard patch‐clamp techniques with an Axopatch‐700B amplifier (Axon Instruments). The signals were filtered at 2 kHz and sampled at 20 kHz using the Digidata 1440A interface (Axon Instruments). The resistance of borosilicate glass pipettes was typically 2–4 MΩ when filled with the internal solution. Drug application was facilitated using a BPS perfusion system (ALA Scientific Instruments). Macroscopic currents generated by expressed potassium channels were recorded under the voltage‐clamp conditions with an internal pipette solution composed of (in mM): 140 KCl, 5 NaCl, 1 CaCl2, 1 MgCl2, 10 HEPES, and 10 EGTA, pH 7.2 adjusted with KOH. The external solution contained (in mM): 140 NaCl, 5 KCl, 2 CaCl2, 1 MgCl2, 10 glucose, and 10 HEPES, pH 7.4 adjusted with NaOH. Currents were elicited with a hyperpolarized voltage at −120 mV from the holding potential of −80 mV, followed by a ramp voltage depolarizing to +50 mV. Astrocytic resting membrane potentials were recorded under current‐clamp conditions (I = 0 pA) using standard internal and external solutions, determined immediately after achieving whole‐cell mode.

5-HT2A receptor = target: T2, 5-HT2A receptor (Homo sapiens, UniProt P28223); assay: 5-HT2A functional assay (Fluo-4 calcium, FDSS); type: cell-based
T2 construct: expressed in transfected cells
Protocol: Cells with inducible expression of target receptor were cultured in 175‐cm^2 flasks until ≈80% confluence, washed once with phosphate‐buffered saline (PBS), and dissociated using 0.25% trypsin–EDTA. After neutralization with culture medium and centrifugation (800 rpm, 3 min), the cells were resuspended, counted, and seeded onto poly‐D‐lysine‐coated 96‐well black plates at a density of 4 × 10^4 cells/well. Expression of the target receptor was induced with 1 µg mL^−1 doxycycline. After 30 min at room temperature, the plates were incubated at 37 °C, 5% CO2 for 18−24 h until reaching ≈90% confluence. The medium was replaced with Ca^2⁺‐free extracellular buffer, washed once, and incubated with Fluo‐4 AM for 60 min at 37 °C in the dark. After washing twice with extracellular buffer, extracellular buffer was added (80 µL/well), and the cells were incubated for an additional 20 min at room temperature before fluorescence recording. Real‐time fluorescence changes were recorded using an FDSS/µCell system at 480 nm excitation and 540 nm emission with a sampling rate of 1 Hz. After a 10‐s baseline, the test compounds were added (20 µL/well), and fluorescence was recorded for 180 s. Subsequently, […] was added (20 µL/well), and the signals were monitored for a total of 360 s.
The agonistic effect (%) of compounds was calculated as follows: (1) Agonist%=Rcompound−Rcontrol/Rcontrol×100% where R control is the maximal fluorescence ratio after the addition of 0.5% DMSO and R compoundis the ratio obtained after compound treatment. Fluorescence response curves and EC50 values were used to evaluate the agonistic potency. The extracellular (Ca^2+‐free) buffer contained (in mM): 140 NaCl, 5 KCl, 1 MgCl2, 10 glucose, 10 HEPES, 2 probenecid; pH adjusted to 7.4 with NaOH.

T2 sequence (P28223 whole entry): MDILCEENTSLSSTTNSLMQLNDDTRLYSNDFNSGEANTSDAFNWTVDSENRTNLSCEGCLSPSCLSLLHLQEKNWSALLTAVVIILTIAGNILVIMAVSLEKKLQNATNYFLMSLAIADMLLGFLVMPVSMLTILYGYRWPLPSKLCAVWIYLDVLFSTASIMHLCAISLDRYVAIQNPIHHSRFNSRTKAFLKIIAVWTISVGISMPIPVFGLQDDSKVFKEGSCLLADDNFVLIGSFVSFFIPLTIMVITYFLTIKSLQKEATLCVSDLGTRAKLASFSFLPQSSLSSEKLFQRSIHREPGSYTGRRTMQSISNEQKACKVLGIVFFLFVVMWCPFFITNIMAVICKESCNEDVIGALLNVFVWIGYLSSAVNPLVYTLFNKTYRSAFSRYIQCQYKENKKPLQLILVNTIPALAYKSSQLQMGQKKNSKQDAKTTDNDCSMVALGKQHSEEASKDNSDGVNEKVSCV

## c1ccc2c(c1)oc1ccc(Nc3ccnc(NCCCN4CCOCC4)n3)cc12 [JX3212, N^4-(dibenzo[b,d]furan-2-yl)-N^2-(3-morpholinopropyl)pyrimidine-2,4-diamine]
C57BL/6J mice; 10 mg kg−1, single or 14-day consecutive administration
  seizure susceptibility, 6-Hz seizure model (in words): did not alter seizure susceptibility
C57BL/6J mice; stimulus 18 mA
  seizure incidence, Multiple dose-6 Hz: 25
C57BL/6J mice; stimulus 20 mA
  seizure incidence, Multiple dose-6 Hz: 50
  seizure incidence, Single dose-6 Hz: 22.22
C57BL/6J mice; stimulus 22 mA
  seizure incidence, Multiple dose-6 Hz: 75
  seizure incidence, Single dose-6 Hz: 50
C57BL/6J mice; stimulus 24 mA
  seizure incidence, Single dose-6 Hz: 57.14
C57BL/6J mice; stimulus 26 mA
  seizure incidence, Multiple dose-6 Hz: 87.5
  seizure incidence, Single dose-6 Hz: 85.71
mice; chronic 10 mg kg−1 per day
  shuttle box active avoidance responses (in words): no significant differences
mice; chronic 10 mg/kg per day (Fig 5G)
  SBT active avoidance responses, single mice: 22 and 29 and 31 and 32 and 21 and 24 and 28 and 25
Kir4.1 I159A; 3 µM, mean ± SEM, read-out: current inhibition, Kir4.1 I159A
  inhibition at 3 µM: 43.9 ± 6.15%
Kir4.1 I159A; JX3212 3 µM (Fig 2D)
  Mutation: I159A inhibition, single recordings: 52.8569 and 40.7357 and 46.4245 and 36.569
Kir4.1 I159A; JX3212 3 µM (Fig 2D), read-out: Mutation: I159A inhibition, single recordings
  inhibition at 3 µM: 42.9%
5-HT2A receptor; agonistic effect
  EC50: > 60 µM
5-HT2A receptor; read-out: 5-HT2A agonistic effect, replicates, concentration 60 (presumably µM)
  activation at 60 µM: 61.8%
5-HT2A receptor; read-out: 5-HT2A max activation%
  Emax: 58.6%
